Reference: paper PMC6958387, “Biological Evaluation of Arylsemicarbazone Derivatives as Potential Anticancer Agents” (Pharmaceuticals, 2019)

How the values were obtained:
HL-60 cells [1] = test: Annexin V-FITC/7-AAD test, flow cytometry; format: cell-based, human; conditions: for cells in initial apoptosis [Annexin V(+) and 7-AAD(−)] / cells in late apoptosis [Annexin V(+) and 7-AAD(+)] / dead cells [Annexin V(−) and 7-AAD (+)]: 72 h
Protocol: Aiming to better study the mechanism of induction of death involved in HL-60 cells after treatment with compounds 3c and 4a, a flow cytometric test was performed after double staining with annexin V-FITC/7-AAD. This assay is based on the ability of annexin V to bind with high affinity to phosphatidylserine which is translocated to the outer membrane of apoptotic cells and the 7-AAD dye binds to the DNA of cells with loss of membrane integrity. Thus, in this test it is possible to identify four distinct populations: viable cells [Annexin V(−) and 7-AAD(−)], initial apoptotic cells [Annexin V(+) and 7-AAD(−)], late apoptotic cells [Annexin V(+) and 7-AAD(+)] and dead cells [Annexin V(−) and 7-AAD (+)] [59].
(§1) HL-60 cells (3 × 10^5) were plated in 24-well plates and treated with the compounds 3c (13 and 26 μM) and 4a (11 and 22 μM) for 72 h at 37 °C with 5% CO2. In all trials, doxorubicin was used as a positive control. After the incubation period, an aliquot of 500 μL of treated and untreated cells suspension was transferred to an Eppendorf tube and centrifuged to remove the supernatant and continue the protocol of the test. In the cell viability and annexin V assays, kits were used, ViaCount kit and guava nexin kit (Guava Technologies), respectively. The protocols performed in these tests followed the manufacturer’s instructions. For to analyze mitochondrial depolarization, rhodamine 123 fluorescent dye was used. In the assay for cell cycle analysis and DNA fragmentation propidium iodide was used. The experiments were performed on Guava EasyCyte HT (Merck-Millipore) flow cytometer, acquiring 5000 events. The data were analyzed in Guava-Soft™ software version 2.7. Three independent experiments were performed in triplicate.

HL-60 cells [2] = test: Cell viability, Guava ViaCount kit, flow cytometry; format: cell-based, human; conditions: 22 μM, 72 h
Protocol: Initially, the percentage of viable cells in apoptosis or necrosis was determined by the ViaCount assay at the Guava EasyCyte HT flow cytometer (Merck-Millipore, Hayward, CA, USA). The ViaCount kit (Merck-Millipore, Hayward, CA, USA) determines cell viability based on membrane permeability. The concentrations used in the cytometric tests were values corresponding to the IC50 and 2x IC50 of 72 h and the chosen cell line was HL-60 (promyelocytic leukemia).
as §1, with “The experiments were performed on Guava EasyCyte HT (Merck-Millipore) flow cytometer, acquiring 5000 events.” left out, “Three independent experiments were performed in triplicate.” left out

NC(=O)N/N=C/c1c(O)ccc2ccccc12 [Compound 3c, 2-Hydroxynaphthaldehyde Semicarbazone]
cells in initial apoptosis [Annexin V(+) and 7-AAD(−)] (HL-60 cells [1]; 13 μM): 16.7%
cells in late apoptosis [Annexin V(+) and 7-AAD(+)] (HL-60 cells [1]; 13 μM): 7.4%
cells in initial apoptosis [Annexin V(+) and 7-AAD(−)] (HL-60 cells [1]; 26 μM): 27.2%
cells in late apoptosis [Annexin V(+) and 7-AAD(+)] (HL-60 cells [1]; 26 μM): 18.1%
cells in apoptosis (annexin V assay) (HL-60 cells [1]; highest concentration tested (26 μM)): approximately 50%

Cc1ccc(C=NNC(N)=O)cc1 [Compound 3g, 4-Methylbenzaldehyde Semicarbazone]
melting point: 215 to 217 °C

CCCCN(N=Cc1ccc([N+](=O)[O-])o1)C(N)=O [Compound 4a, 5-Nitro-2-(N^2-n-butyl)furfuraldehyde Semicarbazone]
cells in early apoptosis (ViaCount) (HL-60 cells [2]): 65.3%
cells in initial apoptosis [Annexin V(+) and 7-AAD(−)] (HL-60 cells [1]; 11 μM): 5.4%
cells in late apoptosis [Annexin V(+) and 7-AAD(+)] (HL-60 cells [1]; 11 μM): 8.3%
dead cells [Annexin V(−) and 7-AAD (+)] (HL-60 cells [1]; 11 μM): 9.1%
cells in initial apoptosis [Annexin V(+) and 7-AAD(−)] (HL-60 cells [1]; 22 μM): 4.7%
cells in late apoptosis [Annexin V(+) and 7-AAD(+)] (HL-60 cells [1]; 22 μM): 12.5%
dead cells [Annexin V(−) and 7-AAD (+)] (HL-60 cells [1]; 22 μM): ~50%
